Assay results taken from patent publication US11083735B2, “Methods for treating sleep disorders, sleep disturbances, and related symptoms using aminosterol compositions” (Enterin, Inc., priority 2017, dated 2021).

Assays:
[1] = Pharmacokinetics of orally administered squalamine (ENT-01) in Stage 2; type: in vivo, human; conditions: Stage 2, oral; for Cmax: squalamine ion, mean
Experimental: Pharmakokinetics: PK data were collected on the 10 patients enrolled in Stage 1 and 10 patients enrolled in Stage 2 to determine the extent of systemic absorption. In Stage 1, PK data were obtained at each visit, pre-medication, at 1, 2, 4, 8 and 24 hours (Table 14). In Stage 2, PK was measured on days 1 and 6 of the randomization period pre-medication, at 1, 2, 4 and 8 hours (Table 15).
The mean Cmax, Tmax and T1/2 and AUC of the squalamine ion following squalamine (ENT-01) oral dosing for Stage 1 patients. The PK analyses are only approximate, as the lower limit of the validated concentration range was 10 ng/ml; most of the measured concentrations fell below that value. The mean Cmax, Tmax and T1/2 and AUC of the squalamine ion following squalamine (ENT-01) oral dosing for Stage 2 patients. The PK analyses are only approximate, as the lower limit of the validated concentration range was 0.5 ng/ml.

[2] = test system: colons from WT (1 yr old FVB/NJ) mice; experiment: Isolated colon motility, WT mice; parameters: species or system mouse
Excerpt: FIGS. 14A-14B show additional effects of squalamine in mice.
(§1) Parkinson's disease is associated with varying degrees of constipation, typically beginning decades before diagnosis, and all too often has a profound negative impact on quality of life. It is believed that the ENS in PD is damaged earlier but by the same processes that damage the neurons of the CNS. In our clinical experience oral administration to several individuals with advanced Parkinson's disease corrected long standing constipation within days of initiation of treatment. We explored whether the human experience could be reproduced in the mouse. In the experiments illustrated below studies of colonic motility were conducted using organs from WT (1 yr old FVB/NJ) or PD mice, in which the murine αSynuclein gene has been excised and replaced by several copies of the human αSynuclein gene driven by the normal murine promoter.
(§2) The isolated colon from the PD strain presents a more sluggish peristaltic wave than that from the WT animal (black columns).

colons from PD mice = experiment: Isolated colon motility, PD mice (human αSynuclein gene); parameters: species or system mouse
Excerpt: as §1, §2

[3] = Duration of the aminosterol-induced response after a single oral dose; type: in vivo, human; conditions: single 200 mg oral dose
Excerpt: The invention is also based on the discovery of unexpected and unprecedented activity of orally or nasally administered squalamine and related aminosterols (e.g., aminosterol 1436). The activity relates to stimulating a sequence of events within the human GI tract with therapeutic value. With respect to this activity, the sequence of events stimulated by an aminosterol such as squalamine or aminosterol 1436 involves the induction of an intestinal secretory response followed by a period of “small intestinal quieting,” and the subsequent passage of a normally formed bowel movement. These events are best explained as a consequence of the stimulation of a heretofore unknown physiological gastrointestinal response, in this invention shown to be controlled or initiated by an effective oral dose of an aminosterol such as squalamine or the related aminosterol, 1436 (Aminosterol-Induced GI Response). The activity relates to stimulating the neural connections between the enteric nervous system and the brain with therapeutic value, which can thereby impact sleeping disorders, sleeping disturbances, or related symptoms, as described herein. With respect to this activity, the sequence of events stimulated by an aminosterol involves the entrainment of the circadian clock, the suprachiasmatic nucleus, and an improvement in the quality of sleep. […]

Compound: CC(C)[C@@H](CC[C@@H](C)[C@H]1CC[C@H]2[C@@H]3[C@H](O)C[C@H]4C[C@@H](NCCCNCCCCN)CC[C@]4(C)[C@H]3CC[C@]12C)OS(=O)(=O)O (single isomer, unassigned; ent-01) [ENT-01]
- AUC0-8 hr ([1]; dose 75 mg): 59.0 ng·h/mL
- Tmax (Median Value) ([1]; dose 75 mg): 3.0 h
- Cmax ([1]; dose 75 mg): 10.0 ng/mL
- AUC0-8 hr ([1]; dose 100 mg): 70.3 ng·h/mL
- Tmax (Median Value) ([1]; dose 100 mg): 1.0 h
- Cmax ([1]; dose 100 mg): 17.7 ng/mL
- AUC0-8 hr ([1]; dose 175 mg): 66.8 ng·h/mL
- Tmax (Median Value) ([1]; dose 175 mg): 2.0 h
- Cmax ([1]; dose 175 mg): 11.8 ng/mL

Compound: CC(C)[C@@H](CC[C@@H](C)[C@H]1CC[C@H]2[C@@H]3[C@H](O)C[C@H]4C[C@@H](NCCCNCCCCN)CC[C@]4(C)[C@H]3CC[C@]12C)OS(=O)(=O)O [squalamine]
- speed of the colonic peristaltic wave ([2]; WT colon, FIG. 14B): stimulates the speed of the colonic peristaltic wave
- force of peristaltic contractions ([2]; WT colon, squalamine added to lumen, FIG. 14A): increases the force of contractions
- colon migrating motor complex (MMC) peak pressure waves ([2]; intraluminal application, legend of FIG. 14A): no apparent effect
- MMC propagation velocity from oral to anal ([2]; intraluminal application, legend of FIG. 14B): increased
- speed of the colonic peristaltic wave (colons from PD mice; FIG. 14B): normalizing the PD colon to that of the unstimulated WT mouse
- force of peristaltic contractions (colons from PD mice; squalamine added to lumen, FIG. 14A): increases the force of contractions
- duration of the aminosterol-induced response [3]: about 4 days
